# Experimental data: article PMC12112332, “Characterization of Novel and Known Activators of Cannabinoid Receptor Subtype 2 Reveals Mixed Pharmacology That Differentiates Mycophenolate Mofetil and GW-842,166X from MDA7” (International Journal of Molecular Sciences, 2025)
# Read-outs that look alike come from different tables or passages of the source.
# Molecular target: T1, rCB2 (Rattus norvegicus, UniProt Q9QZN9)
# T1 construct: expressed in transfected cells; host or cells: HEK293 cells stably co-expressing GIRK1/2 channels
# T1 sequence (Q9QZN9 1-360): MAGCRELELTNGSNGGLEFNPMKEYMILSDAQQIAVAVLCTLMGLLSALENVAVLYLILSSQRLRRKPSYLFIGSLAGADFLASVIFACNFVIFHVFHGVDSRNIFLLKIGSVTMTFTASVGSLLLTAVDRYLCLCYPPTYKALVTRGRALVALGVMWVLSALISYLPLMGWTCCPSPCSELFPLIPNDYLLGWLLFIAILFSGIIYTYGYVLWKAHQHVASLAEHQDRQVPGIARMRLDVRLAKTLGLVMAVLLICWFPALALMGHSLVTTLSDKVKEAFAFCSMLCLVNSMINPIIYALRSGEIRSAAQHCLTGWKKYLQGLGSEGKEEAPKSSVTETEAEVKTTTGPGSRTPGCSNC
# Assay: Thallium flux assay in HEK/GIRK cells expressing rCB2
# Type: cell-based
# Conditions: for rCB2 GIRK (−) 2-AG % Max ± SEM / rCB2 GIRK (+) 2-AG % Max ± SEM: % of maximal 2-AG response
# Procedure: To identify new compounds capable of potentiating CB2 responses to the endogenous agonist 2-AG, we used a thallium flux assay measuring the ability of ligands to enhance 2-AG-induced responses in cells expressing rCB2 and GIRK1/2 channels to screen a collection of FDA-approved drugs. Compounds were added to cells loaded with thallium-sensitive dye and allowed to incubate for 2.3 min, whereupon a submaximal concentration (EC20) of 2-AG was added to the cells and the signal was monitored for an additional 2.7 min. The ~1000 compound collection was initially screened at a single point using a 10 µM concentration of the compound. Test compounds that potentiated the cellular response to 2-AG by a minimum of 3 standard deviations above the average EC20 agonist response were selected as potential PAM hits. A total of 63 putative PAMs were identified; of these, 13 were confirmed as active with concentration-dependent activity at the rCB2 receptor.
# The cell lines used in this manuscript were generated in-house. Their preparation is described in detail in Qi et al.. Cells were used for 10 passages for experiments and day-to-day signals in both the CB2 and CB1 lines were stable across this passage number. Human Embryonic Kidney (HEK) 293 cells stably expressing rCB2 and the G protein Gqi9 were maintained in Dulbecco’s modified Eagle media (DMEM) containing 10% FBS, 1× antibiotic/antimycotic, 20 mM HEPES, 1 mM sodium pyruvate, 2 mM L-glutamine, 1× non-essential amino acids, 700 µg/mL G418 sulfate, and 0.6 µg/mL puromycin. HEK cells stably expressing rCB2 or rCB1 and the G protein inwardly rectifying potassium channel (GIRK) were maintained in DMEM/F12 containing 10% FBS, 1× antibiotic/antimycotic, 20 mM HEPES, 1 mM sodium pyruvate, 2 mM L-glutamine, 1× non-essential amino acids, 700 µg/mL G418 sulfate, and 0.6 µg/mL puromycin. Cells were monitored by periodic PCR detection using the LookOut Mycoplasma PCR Detection Kit (Sigma-Aldrich, St Louis, MO, USA) to eliminate potential mycoplasma infection. Reagents were obtained from Invitrogen (Waltham, MA, USA) unless otherwise noted.
# Thallium flux assays were performed as previously described in Niswender et al., 2008 [31]. HEK/GIRK cells stably expressing rCB1 or rCB2 (15,000 cells/20 µL/well) were seeded in 384-well, poly-D-lysine coated assay plates (Corning BioCoat®) (Corning Inc., Corning, NY, USA) and incubated overnight at 37 °C in the presence of 5% CO2. The next day, the medium was removed and replaced with 20 μL of 1.2 µM thallium-sensitive dye Thallos-AM (ION biosciences, San Marcos, TX, USA), prepared as a DMSO stock solution mixed in a 1:1 ratio with 10% (w/v) pluronic acid F-127, and diluted in assay buffer (Hank’s balanced salt solution, 20 mM HEPES, pH 7.4). Following 1 h at room temperature, the dye solution was removed and replaced with 20 µL assay buffer. For screening of the FDA-Approved Drug Collection, 10 mM DMSO stocks of library compounds were transferred to daughter plates using an Echo acoustic plate reformatter (Labcyte, Sunnyvale, CA, USA) and diluted in assay buffer to a 2× final concentration. For concentration–response curve experiments, compounds were serially diluted 1:3 into 10-point concentration–response curves in DMSO, transferred to daughter plates using the Echo or Bravo Automated Liquid Handling Platform (Agilent Technologies, Santa Clara, CA, USA), and diluted in assay buffer to a 2× final concentration. Thallium flux was measured using the Hamamatsu FDSS/μCELL Kinetic Plate Imager (Bridgewater, NJ, USA). After the establishment of a fluorescence baseline (excitation, 480 ± 20 nm; emission, 540 ± 30 nm), 20 µL (2×) of test compound was added to the cells at 1 s and the response was measured. […]
# [1] = rCB2 GIRK (−) 2-AG pEC50 ± SEM, thallium flux, absence of 2-AG
# [2] = thallium flux, presence of EC20 2-AG
Compound,EC50 [1] [nM],"EC50 (rCB2 GIRK EC50 in absence of 2-AG, thallium flux, absence of 2-AG) [nM]","EC50 (rCB2 GIRK EC50 in presence of 2-AG, thallium flux, presence of EC20 2-AG) [nM]","rCB2 GIRK (−) 2-AG % Max ± SEM (thallium flux, absence of 2-AG) [%]",rCB2 GIRK (+) 2-AG % Max ± SEM [2] [%],"EC50 (rCB2 GIRK (+) 2-AG pEC50 ± SEM, thallium flux, presence of EC20 2-AG) [nM]","rCB2 GIRK (−) 2-AG pEC50 ± SEM (thallium flux, absence of 2-AG)",rCB2 GIRK (+) 2-AG pEC50 ± SEM [2],"EC50 (thallium flux rCB2, vehicle instead of AM630, read-out: pEC50 of mycophenolate mofetil CRC, vehicle (converted)) [nM]","EC50 (thallium flux, absence of 2-AG, read-out: rCB2 GIRK EC50 in absence of 2-AG) [nM]","EC50 (thallium flux, presence of EC20 2-AG, read-out: rCB2 GIRK EC50 in presence of 2-AG) [nM]"
"O=C(NCC1CCOCC1)c1cnc(Nc2ccc(Cl)cc2Cl)nc1C(F)(F)F [GW-842,166X, 2-(2,4-dichloroanilino)-N-(oxan-4-ylmethyl)-4-(trifluoromethyl)pyrimidine-5-carboxamide]",55,56,74,89 ± 5,82 ± 4,,,,,,
"CC1(Cc2ccccc2)COc2cc(C(=O)N3CCCCC3)ccc21 (centres unmarked) [MDA7, 1-[(3-benzyl-3-methyl-2,3-dihydro-1-benzofuran-6-yl)carbonyl]piperidine]",> 10000,,,−64 ± 13,−65 ± 15,> 10000,< 5.0,< 5.0,,,
COc1c(C)c2c(c(O)c1C/C=C(\C)CCC(=O)OCCN1CCOCC1)C(=O)OC2 [Mycophenolate mofetil],,,,71 ± 5,74 ± 2,,,,339,154,228
COc1c(C)c2c(c(O)c1C/C=C(\C)CCC(=O)O)C(=O)OC2 [Mycophenolic acid],,,,,,,,Inactive,,,
